Reference: patent US10245255B2, “Compositions and methods for the treatment of obesity and related disorders” (THE REGENTS OF THE UNIVERSITY OF MICHIGAN, priority 2011, dated 2019)

Key:
[1] = Established diet-induced obesity treatment group: body weight, food intake, body composition; format: in vivo, C57BL/6 mice
Method: (§1) Wild type male C57BL/6 mice were fed a high fat diet consisting of 45% of calories from fat (D12451 Research Diets Inc., New Brunswick, N.J.) starting at 8 weeks of age for 12-24 weeks, while normal diet C57BL/6 controls were maintained on normal chow diet consisting of 4.5% fat (5002 Lab Diet, Philadelphia, Pa.). Diets containing ω-3 fatty acids were fed as previously described 24. Rosiglitazone treatment was administered for three weeks by addition of the compound to the diet in mice that had been on HFD for 16 weeks. Each mouse consumed on average 3.5 mg/kg rosiglitazone per day. Amlexanox was administered by daily oral gavage. […] Animals were housed in a specific pathogen-free facility with a 12-hour light/12-hour dark cycle and given free access to food and water. All animal use was in compliance with the Institute of Laboratory Animal Research Guide for the Care and Use of Laboratory Animals and approved by the University Committee on Use and Care of Animals at the University of Michigan and UCSD.
The remaining weight of food provided was determined daily for singly housed mice. Daily food consumption was calculated from a three-day average.

[2] = Diet-induced obese mice: liver weight, triglyceride, glycogen, histology; format: in vivo, C57BL/6 mice
Method: as §1
Liver lipids were isolated as previously described (Norris et. Al. 2003) and the triglyceride levels were measured by Triglyceride Reagent kit.
Determination of glycogen in liver was performed as follows. Briefly, liver tissue was digested in a 30% potassium hydroxide solution, and then glycogen was precipitated using ethanol. After three washes to remove any traces of glucose, glycogen was digested by addition of amyloglucosidase. Released glucose was quantified using a colorimetric kit (Wako, Richmond, Va.).
(§2) Tissues were fixed in formalin for 3 days. Histology was performed by the University of Michigan Cancer Center Research Histology Laboratory.

[3] = Diet-induced obese mice: tissue protein, phosphorylation and gene expression (liver, WAT, BAT); format: in vivo, C57BL/6 mice
Method: as §1
Tissues were homogenized in lysis buffer (50 mM Tris, pH 7.5, 5 mM EDTA, 250 mM sucrose, 1% NP40, 2 mM DTT, 1 mM sodium vanadate, 100 mM NaF, 10 mM Na4P2O7, and freshly added protease inhibitor tablet), then incubated for one hour at 4° C. Crude lysates were then centrifuged at 14,000×g for 15 minutes twice and the protein concentration was determined using BioRad Protein Assay Reagent. Samples were diluted in sodium dodecyl sulfate (SDS) sample buffer. Bound proteins were resolved by SDS-polyacrylamide gel electrophoresis and transferred to nitrocellulose membranes (Bio-Rad, Hercules, Calif.). Individual proteins were detected with the specific antibodies and visualised on film using horseradish peroxidase-conjugated secondary antibodies (Bio-Rad, Hercules, Calif.) and Western Lightning Enhanced Chemiluminescence (Perkin Elmer Life Sciences, Waltham, Mass.).
as §2
(§3) Mouse tissues were isolated, rinsed in Phosphate Buffered Saline (PBS), frozen in liquid nitrogen and stored at −80° C. until extraction. Total RNA was extracted from Liver, WAT and BAT tissues as well as differentiated 3T3-L1 cells using the RNeasy Lipid Tissue Kit (Qiagen, Valencia, Calif.) according to the manufacturer's instructions with the inclusion of a DNase digestion step. Total RNA was extracted from BMDM and SVF cells using the RNeasy Kit (Qiagen, Valencia, Calif.) with a DNase step. The Superscript First-Strand Synthesis System for RTPCR (Invitrogen, Grand Island, N.Y.) was used with random primers for reverse transcription. Realtime PCR amplification of the cDNA was performed on samples in triplicate with Power SYBR Green PCR Master Mix (Applied Biosystems, Carlsbad, Calif.) using the Applied Biosystems 7900HT Fast Realtime PCR System. […] Data was analyzed using the 2-ΔΔCT method, and statistical significance was determined using the unpaired heterocedastic Student's t-test with one averaged sample value per mouse.

[4] = Ob/ob mice: adipose tissue histology and mRNA levels; format: in vivo
Method: as §2, §3

[5] = Ob/ob mice: liver mRNA levels; format: in vivo; conditions: 100 mg/kg for 14 weeks, vs vehicle
Method: Particular physiological tests were used during the development of the technology provided herein. For example, in some of the experiments described below, subjects were tested for tolerance of injected glucose and insulin according to the methods described in Chiang et al. (“The protein kinase IKKepsilon regulates energy balance in obese mice”, Cell (2009) 138: 961-975, incorporated herein by reference in its entirety for all purposes). In some of the experiments described below, subjects were tested for tolerance of oral glucose. In particular, mice were fasted for 6 hours before the studies. For ob/ob mice, 1.0-1.5 mg/g of glucose was gavaged into mice, and blood glucose was measured with a glucometer (e.g., OneTouch Ultra glucometer). Measurement of triglycerides, mRNA, and cytokines were performed according to the methods described in Chiang et al. (The protein kinase IKKepsilon regulates energy balance in obese mice. Cell (2009) 138: 961-975).
as §3

[6] = High fat diet prevention group: oral glucose tolerance test; format: in vivo, C57BL/6 mice; conditions: 25 mg/kg for 8 weeks concurrently with high fat diet
Method: as §1
For glucose tolerance tests, after a six-hour fast mice were orally gavaged with glucose at a dose of 1.5 g/kg (C57BL/6 mice) or 1.2 g/kg (ob/ob mice). […] Blood glucose was measured at basal, 15, 30, 45, 60, 90, 120 and 180 minutes from tail blood using the One Touch Ultra glucometer (Lifescan, Milpitas, Calif.).

[7] = diet induced obese mice, 25 mg/kg for 8 weeks

In the case of `CC(C)c1ccc2oc3nc(N)c(C(=O)O)cc3c(=O)c2c1` [amlexanox, 2-amino-7-isopropyl-5-oxo-5H-chromeno[2,3-b]pyridine-3-carboxylic acid], the weight loss ([1]; 25 mg/kg after 12 weeks of 45% high-fat diet, after 4 weeks of treatment) is reported as 10 g, the “reduction in overall mass of adipose tissue” value ([1]; 25 mg/kg, HFD, treatment phase) is reported as over 6 gram and the “time to return to control weights after treatment was stopped” value ([1]; withdrawal after 8 weeks of 25 mg/kg treatment, HFD) is reported as 6-8 weeks. For the same compound, the “reductions in hepatic lipids after mice were taken off drug” value ([2]; continued on high fat diet, stained tissue sections) was “reversed”, the “large lipid droplets in liver (H & E staining)” value [2, 7] was “largely disseminated” and the “reduction in liver weight” value [2, 7] was “greater than 20%”. The hepatic glycogen levels ([2]; diet induced obese mice, 25 mg/kg for 8 weeks, vs control HFD mice) was “lower”, the “reduction of triglyceride content in liver” value ([2]; diet induced obese mice, 25 mg/kg for 8 weeks, vs vehicle) was “more than 50%” and the “expression of brown fat-specific marker Cidea in BAT” value ([3]; HFD, 25 mg/kg daily) was “increased”. For the same compound, the “UCP1 protein levels in brown fat” value ([3]; HFD, treatment group) was “increased”, the “mitochondrial genes in brown fat” value ([3]; compared to control) was “no increases” and the “signaling through the mTORC1 pathway in BAT” value ([3]; compared to controls) was “Reduced signaling”. For the same compound, the “TBK1 phosphorylation in adipose tissue” value ([3]; diet induced obese mice) was “prevented”, the “high fat diet induction of IKKε protein in adipose tissue” value ([3]; diet induced obese mice) was “blocked” and the “high fat diet-induced increase of S6K phosphorylation in adipose tissue” value ([3]; diet induced obese mice) was “largely attenuated”. The “UCP-1 protein levels in adipose tissue” value ([3]; diet induced obese mice vs HFD vehicle) was “increased”, the brown fat appearance ([3]; high fat diet) was “reverted to its normal appearance” and the “hormone sensitive lipase phosphorylation in adipose tissue” value ([3]; high fat diet) was “prevented the reduction”. For the same compound, the “BAT lipids when amlexanox treatment was stopped” value ([3]; high fat diet, withdrawal) was “lipids again accumulated”, the “genetic measures of hepatosteatosis” value ([3]; mice with diet induced obesity) was “similarly reduced” and the “IKKε protein levels in BAT” value ([3]; mouse, in vivo) was “reduced”. The “TBK1 protein levels in BAT” value ([3]; mouse, in vivo) was “reduced”, the “expression of Glut4 in WAT” value ([4]; 100 mg/kg) was “Increased expression” and the “expression of PPARγ in WAT” value ([4]; 100 mg/kg) was “Increased expression”. The “adipose tissue mRNA level, CD11c” value ([4]; 100 mg/kg for 12 weeks) was “marked reduction”, the “adipose tissue mRNA level, F4/80” value ([4]; 100 mg/kg for 12 weeks) was “marked reduction” and the “adipose tissue mRNA level, IL-10” value ([4]; 100 mg/kg for 12 weeks) was “marked reduction”. The “adipose tissue mRNA level, MCP-1” value ([4]; 100 mg/kg for 12 weeks) was “marked reduction”, the “adipose tissue mRNA level, MIP1α” value ([4]; 100 mg/kg for 12 weeks) was “marked reduction” and the “adipose tissue mRNA level, Rantes” value ([4]; 100 mg/kg for 12 weeks) was “marked reduction”. For the same compound, the “adipose tissue mRNA level, TNFα” value ([4]; 100 mg/kg for 12 weeks) was “marked reduction”, the “infiltration of inflammatory macrophages in adipose tissue (H & E)” value ([4]; 100 mg/kg for 12 weeks, epididymal fat) was “markedly reduced” and the “liver mRNA level, Cd11c” value [5] was “reduced”. For the same compound, the “liver mRNA level, F4/80” value [5] was “reduced”, the “liver mRNA level, IL-10” value [5] was “reduced” and the “liver mRNA level, MIP1α” value [5] was “reduced”. The “liver mRNA level, Rantes” value [5] was “reduced”, the “liver mRNA level, TNFα” value [5] was “reduced” and the “liver mRNA level, acetyl CoA carboxylase (ACC)” value [5] was “reduced”. For the same compound, the “liver mRNA level, fatty acid synthase (FAS)” value [5] was “reduced”, the “liver mRNA level, stearyl CoA desaturase (SCD1)” value [5] was “reduced” and the “reduction in the area under the curve for glucose (oral glucose tolerance)” value [6] was 30-40%.
